In publication PMC8147976, “Partitioning and Spatial Distribution of Drugs in Ocular Surface Tissues” (Pharmaceutics, 2021):
Where two headings read alike, the source gives them in different places. Each block holds one molecule with its values, some of them ahead of it.

Columns and labels:
[1] = Drug distribution in porcine ocular tissues ex vivo, comparison across tissues; type: in vitro ADME; details: for time to reach equilibrium in tissue: porcine tissues ex vivo, Figure 1
Text: Cornea. […] Bulbar conjunctiva.

[2] = cited from earlier work
[3] = de-epithelized vs intact cornea; ref [29],[46]; cited from earlier work
[4] = for ratio of signal against twice the signal of propranolol, Epithelium 10 min / ratio of signal against twice the signal of propranolol, Epithelium 60 min: rabbit corneal epithelium; for ratio of signal against twice the signal of propranolol, Epithelium 10 min / ratio of signal against twice the signal of propranolol, Stroma 10 min: 10 min after eye drop; for ratio of signal against twice the signal of propranolol, Epithelium 10 min / ratio of signal against twice the signal of propranolol, Epithelium 60 min / ratio of signal against twice the signal of propranolol, Stroma 10 min / ratio of signal against twice the signal of propranolol, Stroma 60 min: MALDI-IMS; for ratio of signal against twice the signal of propranolol, Epithelium 60 min / ratio of signal against twice the signal of propranolol, Stroma 60 min: 60 min after eye drop; for ratio of signal against twice the signal of propranolol, Stroma 10 min / ratio of signal against twice the signal of propranolol, Stroma 60 min: rabbit corneal stroma
Description: Three months old female New Zealand White rabbits, 2.5–2.8 kg (Envigo Laboratories, Blackthron, Bicester, UK), were used in the study to determine the distribution of drugs in the cornea. […] The rabbits were sacrificed by injecting a lethal dose (2 mL/kg) of pentobarbital (Mebunat vet 60 mg/mL; Orion Pharma, Finland) into the marginal ear vein at 10, 20, and 60 min post-dosing. The eyes were removed and snap-frozen with liquid nitrogen in plastic tubes and stored at −80 °C until sample preparation and analysis with MALDI-IMS.
The frozen eyes were mounted onto a chuck using an optimal cutting temperature compound (Sakura Finetek, Torrance, CA, USA). The samples were sectioned to 20 μm or 35 μm thickness at −20 °C on a Leica CM Cryostat (S3050, Leica Microsystems GmbH, Wetzlar, Germany) and collected on a cryo-film (3C16UF, SECTION-LAB Co. Ltd., Yokohama, Japan) by a modified Kawamoto method. The film was subsequently mounted onto a microscope glass slide using a double-sided copper tape, and the sample slides were dried in a lyophilization chamber. The slides were washed twice with 50 mM ammonium formate for 10 s and dried in a vacuum desiccator. The sample slides contained sections from three eyes from the eye drop experiment and three blanks. The matrix α-cyano-4hydroxycinnamic acid (CHCA) (7 mg/mL in 50% acetonitrile containing 1% trifluoro acetic acid) (Sigma-Aldrich, St. Louis, MO, USA) was added via spray deposition using 10 passes, flow rate of 100 μL/min, temperature of 77 °C, track spacing of 2.5 mm, and velocity of 1300 mm/min (TM-Sprayer, HTX Technologies, Chapel Hill, NC, USA).
Fourier transform-ion cyclotron resonance (FT-ICR) MALDI-IMS was performed using a Bruker 7T SolariX XR mass spectrometer (Bruker Daltonics, Bremen, Germany) at 50 μm spatial resolution for the corneal area and 150 μm spatial resolution for the rest of the eye. […] MALDI images of each signal were plotted with a 5 mDa mass window using flexImaging^TM software (v4.1, Bruker Daltonics, Bremen, Germany) with datasets normalized by the RMS method and pixel interpolation.
The data for calculation was obtained by taking six crosscuts through the cornea; no normalization was used.

[5] = ex vivo, 180 min epithelial side exposure, donor 2 ng/µL
[6] = ex vivo, 180 min epithelial side exposure, donor 2 ng/µL; remark: listed apart in the source
[7] = ex vivo, 180 min epithelial side exposure, donor 2 ng/µL; remark: listed apart in the source
[8] = in vitro; details: pig, pH 7.4
[9] = parameters: method as in PMID 3246568; details: inferior drug insert application, rabbit; ref [56]; cited from earlier work
[10] = n-octanol/buffer solution distribution coefficient at pH 7.4, ref [10],[44]

difference in concentration between corneal epithelium, corneal stroma and conjunctiva ([1]; ex vivo): two-fold
time to reach equilibrium in tissue [1]: ≈ 30 min
SMILES: CC(C)NCC(O)COc1ccc(CC(N)=O)cc1 (stereo not drawn) [Atenolol]

time to reach equilibrium in tissue [1]: ≈ 60 min
SMILES: CC(C)NCC(O)COc1ccc(CCOCC2CC2)cc1 (stereo not drawn) [Betaxolol]
Log D7.4 ([2]; as listed in Table S2): 0.43
Log D7.4 [2, 10]: 0.43
change of permeability in de-epithelized corneas [3]: only modest or no changes

SMILES: COCCc1ccc(OCC(O)CNC(C)C)cc1 (stereo not drawn) [Metoprolol]
Log D7.4 ([2]; as listed in Table S2): −0.5

time to reach equilibrium in tissue [1]: ≈ 30 min
SMILES: CC(C)(C)NCC(O)COc1cccc2c1CC(O)C(O)C2 (stereo not drawn) [Nadolol]
Log D7.4 [2, 10]: −1.54

SMILES: CC(C)NCC(O)COc1cccc2[nH]ccc12 (stereo not drawn) [Pindolol]
Log D7.4 ([2]; as listed in Table S2): 0.06
Log D7.4 [2, 10]: −0.5
ratio of signal against twice the signal of propranolol, Epithelium 10 min [4]: 0.21 ± 0.01
ratio of signal against twice the signal of propranolol, Epithelium 60 min [4]: 0.356± 0.08
ratio of signal against twice the signal of propranolol, Stroma 10 min [4]: 0.57 ± 0.00
ratio of signal against twice the signal of propranolol, Stroma 60 min [4]: 0.83 ± 0.13

SMILES: CC(C)NCC(O)COc1cccc2ccccc12 (stereo not drawn) [Propranolol]
concentration in corneal stroma [5]: 0.83 ng/mg
concentration in corneal epithelium [6]: 9.46 ng/mg tissue
MALDI-IMS signal intensity in corneal tissues and aqueous humor ([4]; rabbit, in vivo): highest intensity
concentration in conjunctiva [7]: 1.24 ng/mg
change of permeability in de-epithelized corneas [3]: only modest or no changes
Kp at 3 h, 2 µg/mL [8]: 4.7
time to reach equilibrium in tissue [1]: ≈ 60 min

SMILES: CC(C)(C)NC[C@H](O)COc1nsnc1N1CCOCC1 [Timolol]
Log D7.4 [2, 10]: −1.43
ratio of signal against twice the signal of propranolol, Epithelium 10 min [4]: 0.19 ± 0.02
ratio of signal against twice the signal of propranolol, Epithelium 60 min [4]: 0.25 ± 0.08
ratio of signal against twice the signal of propranolol, Stroma 10 min [4]: 0.36 ± 0.01
ratio of signal against twice the signal of propranolol, Stroma 60 min [4]: 0.45 ± 0.17
MALDI-IMS signal in corneal tissues and aqueous humor ([4]; rabbit, in vivo): below the limit of detection in many pixels
timolol levels in the inferior relative to the superior cornea [9]: 4–6 fold
time to reach equilibrium in tissue [1]: ≈ 30 min
